Measurements reported in US10172957B2, “Acid-labile lipophilic prodrugs of cancer chemotherapeutic agents” (priority 2011, dated 2019).

Columns and labels:
Format in all cases: cell-based, human
[1] = test system: CEM/VLB100 cells (MDR+); test: cells; settings: for IC50: Homo sapiens, CEM/VLB100, read-out: IC50 CEM/VLB100 (MDR + HTL), CEM/VLB100, MTT; for Degree of resistance (CEM/VLB100): IC50 of the resistant line divided by IC50 of sensitive CEM cells
Text: (§1) A second evaluation of the cytotoxicity of the acid labile, lipophilic molecular conjugates was undertaken.
(§2) These lines included a uterine sarcoma line, MES-SA, and its doxorubicin-resistant subline, MES-SA/Dx5. See W. G. Harker, F. R MacKintosh, and B. I. Sikic. Development and characterization of a human sarcoma cell line, MES-SA, sensitive to multiple drugs. Cancer Research 43: 4943-4950 (1983); W. G. Harker and B. I. Sikic. Multidrug (pleiotropic) resistance in doxorubicin-selected variants of the human sarcoma cell line MES-SA. Cancer Research 45: 4091 4096 (1985).
(§3) The second set of cells tested, CCRF-CEM or simply CEM, were derived from the blood of a patient with acute lymphoblastic leukemia. G. E. Foley, H. Lazarus, S. Farber, B. G. Uzman, B. A. Boone, and R E. McCarthy. Continuous culture of human lymphoblasts from peripheral blood of a child with acute leukemia. Cancer 18: 522-529 (1965). The subline CEM/VLB100 was developed to be resistant to up to vinblastine at 100 ng/ml. W. T. Beck, T. J. Mueller, and L. R. Tanzer. Altered surface membrane glycoproteins in Vinca alkaloid-resistant human leukemic lymphoblasts. Cancer Research 39: 2070-2076 (1979). Drug resistance is achieved by overexpression of the MDR1 gene. Resistance in the CEM subline designated CEM/VM-1-5, however, is “atypical.” M. K. Danks, J. C. Yalowich, and W. T. Beck. Atypical multiple drug resistance in a human leukemic cell line selected for resistance to teniposide (VM-26). Cancer Research 47: 1297-1301 (1987). The classes of drugs included in the “classic” multiple drug resistance phenotype are Vinca alkaloids, anthracyclines, epipodophyllotoxins and antibiotics. However, CEM/VM-1-5 cells retain sensitivity to the Vinca alkaloids despite resistance and cross-resistance to etoposide, anthracyclines and mitoxantrone. Danks, M. K.; Schmidt, C. A.; Cirtain, M. C.; Suttle, D. P.; Beck, W. T., Altered catalytic activity of and DNA cleavage by DNA topoisomerase II from human leukemic cells selected for resistance to VM-26. Biochemistry 1988, 27, 8861-8869. Resistance in CEM/VM-1-5 cells is effected by over expression of the […]. CEM, CEM/VLB100 and CEM/VM-1-5 cells were obtained from Dr. WT Beck, University of Illinois at Chicago.

[2] = test system: CCRF-CEM (CEM) cells; test: MTT-based cytotoxicity assay, CEM; settings: Homo sapiens, CCRF-CEM, read-out: IC50 CEM (HTL), CEM human T-lymphoblastoid, MTT
Text: as §1, §2, §3

[3] = test system: MES-SA uterine sarcoma line; test: MTT-based cytotoxicity assay, MES-SA; settings: Homo sapiens, MES-SA, read-out: IC50 MESSA (Hs)
Text: as §1, §2
(§4) MES-SA/Dx5 cells express high levels of ABCB1 (MDR1) mRNA and its gene product, the P-glycoprotein. MES-SA and MES-SA/Dx5 were purchased from the American Type Culture Collection (ATCC, Manassas, Va.).

[4] = test system: MES-SA/Dx5 doxorubicin-resistant subline (MDR+); test: cells; settings: for IC50: Homo sapiens, MES-SA/Dx5, read-out: IC50 MESSA/Dx5 (MDR + Hs); for Degree of resistance (MESSA/Dx5): IC50 of the resistant line divided by IC50 of sensitive MES-SA cells
Text: as §1, §2, §4

Row | Structure (SMILES) | IC50 [1] [nM] | Degree of resistance (CEM/VLB100) [1] | IC50 [2] [nM] | IC50 [3] [nM] | IC50 [4] [nM] | Degree of resistance (MESSA/Dx5) [4]
1 | CCCCCCCCCCCCCCCC1OCC(COC(=O)O[C@@H]2C(=O)C=C(C)[C@@H]3C[C@H]4OC(=O)C(OC(=O)CC(O)(C(C)C)C(C)C)C5[C@@H](C)[C@@H](O)[C@@]6(O)OC[C@@]54C6[C@@]23C)O1 (stereo partly drawn) [ART 488] | 34 ± 12 | 9 ± 4 | 4 | 1.5 ± 0.7 | 7 ± 5.7 | 4.3 ± 1.8
2 | COC(=O)[C@@]12OC[C@]34[C@H]([C@@H](O)[C@@H]1O)[C@@]1(C)CC(=O)C(O)=C(C)[C@@H]1C[C@H]3OC(=O)C(OC(=O)CC1(O)CCCCC1)[C@@H]24 (stereo partly drawn) [ART 198] | 7190 ± 1920 | 76 ± 52 | 113 ± 53 | 47.5 ± 11 | 376 ± 110 | 7.9 ± 0.6
3 | CCCCCCCCCCCCCCCC1OCC(COC(=O)OC2=C(C)[C@@H]3C[C@H]4OC(=O)C(OC(=O)CC5(O)CCCCC5)[C@H]5[C@]6(C(=O)OC)OC[C@]45[C@H]([C@@H](O)[C@@H]6O)[C@@]3(C)CC2=O)O1 (stereo partly drawn) [ART 489] | 670 ± 71 | 33 ± 0 | 21 ± 2 | 5.5 ± 3.5 | 17 ± 5.7 | 4.3 ± 3.8
